Patent US7659299B2, “Compounds inhibiting the binding of sap for treating osteoarthritis” (Pentraxin Therapeutics Limited, priority 2003, dated 2010)

Columns and labels:
SAP [1] = biological target: T1, SAP (Homo sapiens, UniProt P02743); test: Lead identification: inhibition of ligand binding by SAP (SAP binding to amyloid fibrils, high throughput screening); conditions: compared with the original hit Ro-15-3479
Source text: The compounds tested in the experiment shown here were a family of molecules developed as inhibitors of SAP binding to amyloid fibrils, following identification of an initial lead molecule during high throughput screening of a large compound library according to U.S. Pat. No. 6,126,918. […] A chemistry programme then produced, (R)-1-[6-(R)-2-Carboxy-pyrrolidin-1-yl]-6-oxo-hexanoyl]pyrrolidine-2-carboxylic acid (Ro-63-8695) (Example 8b of EP-A-915088) and a family of related molecules, that were tested here.

SAP [2] = biological target: T1, SAP; test: Inhibition of binding of 125I radiolabelled SAP to native long chromatin immobilized in microtitre plates; set-up: 5 μl of radiolabelled SAP in TN; from tissue; conditions: read-out: Percent inhibition of binding of radiolabelled SAP to immobilized native long chromatin
SAP [3] = biological target: T1, SAP; test: Inhibition of binding of 125I radiolabelled SAP to Neisseria meningitidis immobilized in microtitre plates; set-up: 5 μl of radiolabelled SAP in TN; from tissue; conditions: read-out: Percent inhibition of binding of radiolabelled SAP to immobilized Neisseria meningitidis
Method: A suspension of heat killed Neisseria meningitidis at 1×10^8 organisms per ml in PBS was dispensed to polystyrene microtitre plates at 50 μl volumes per well, and left overnight at 4° C. All wells were then washed three times with 200 μl volumes of PBS containing 0.05% v/v Tween 20, prior to equilibration for 2 min with 0.01M Tris buffered 0.14M NaCl/0.002M CaCl2 at pH 8.0 (TC buffer), containing 4% w/v BSA and 0.05%/v Tween 20 (TCBT buffer). The wells were then emptied before adding to each one the following reagents. […] For background, non-specific, non calcium dependent, binding in the presence of EDTA: 5 μl radiolabelled SAP in TN and 45 μl 0.01M Tris buffered 0.14M NaCl at pH 8.0 containing 11.1 mM EDTA, 4.4% w/v BSA and 0.06% w/v Tween 20 (TEBT buffer) to provide final concentrations of EDTA, 10 mM; BSA, 4%; Tween 20, 0.05%. […] All wells were then incubated at room temperature for 2 h before being washed three times with 200 μl volumes of TCBT, allowed to dry for 1 h at room temperature, and bound radiolabelled SAP was then counted.
The capacity of the compounds tested to inhibit binding of SAP to meningococci is expressed as the percentage by which SAP binding was reduced compared to binding in the absence of any inhibitor (Table 1).

SAP [4] = biological target: T1, SAP; test: Inhibition of binding of 125I radiolabelled SAP to influenza virus immobilized in microtitre plates; set-up: 5 μl of radiolabelled SAP in TN; from tissue; conditions: read-out: Percent inhibition of binding of radiolabelled SAP to immobilized influenza virus
Method: A concentrated suspension of purified influenza virus A/Shanghai/24/90 at 10 mg protein per ml in PBS was diluted 1:50 in PBS and then dispensed to polystyrene microtitre plates at 50 μl volumes per well, and left overnight at 4° C. All wells were then emptied before blocking by addition to each well of 200 μl of 2% w/v BSA in PBS and incubation at room temperature for 1 h. All wells were then washed three times with 200 μl volumes of PBS containing 0.05% v/v Tween 20, prior to equilibration for 2 min with 0.01M Tris buffered 0.14M NaCl/0.002M CaCl2 at pH 8.0 (TC buffer), containing 4% w/v BSA and 0.05% v/v Tween 20 (TCBT buffer). The wells were then emptied before adding to each one the following reagents. […] For background, non-specific, non calcium dependent, binding in the presence of EDTA: 5 μl radiolabelled SAP in TN and 45 μl 0.01M Tris buffered 0.14M NaCl at pH 8.0 containing 11.1 mM EDTA, 4.4% w/v BSA and 0.06% w/v Tween 20 (TEBT buffer) to provide final concentrations of EDTA, 10 mM; BSA, 4%; Tween 20, 0.05%. […] All wells were then incubated at room temperature for 2 h before being washed three times with 200 μl volumes of TCBT, allowed to dry for 1 h at room temperature, and bound radiolabelled SAP was then counted. The compounds tested in the experiment shown here were the same as those specified in Example B above.
The capacity of the compounds tested to inhibit binding of SAP to the immobilised influenza virus is expressed as the percentage by which SAP binding was reduced compared to binding in the absence of any inhibitor (Table 3).

T1 sequence (P02743 20-223): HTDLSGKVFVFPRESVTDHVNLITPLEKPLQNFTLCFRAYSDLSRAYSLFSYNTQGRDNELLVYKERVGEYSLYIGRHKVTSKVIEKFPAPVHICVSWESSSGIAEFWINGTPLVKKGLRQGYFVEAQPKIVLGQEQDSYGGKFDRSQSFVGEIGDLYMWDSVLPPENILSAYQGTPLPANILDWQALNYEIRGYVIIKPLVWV

Question: For C[C@H](CSSC[C@@H](C)C(=O)N1CCC[C@@H]1C(=O)O)C(=O)N1CCC[C@@H]1C(=O)O [Ro-63-3300, (R)-1-[(S)-3-[(S)-3-[(R)-2-carboxy-pyrrolidin-1-yl]-2-methyl-3-oxo-propyldisulfanyl]-2-methyl-propionyl]-pyrrolidine-2-carboxylic acid], which “Inhibition of ligand binding by SAP, in words” value (SAP [1]) is on record?
Answer: much more potent

Question: And the inhibition at 0.2 µM (SAP [2]; compound 200 nM)?
Answer: 3%

Question: What about the inhibition at 2 µM (SAP [2]; compound 2 μM) of the same molecule?
Answer: 34%

Question: And the inhibition at 20 µM (SAP [2]; compound 20 μM)?
Answer: 69%

Question: What about the inhibition at 200 µM (SAP [2]; compound 200 μM) of the same molecule?
Answer: 88%

Question: And the inhibition at 2000 µM (SAP [2]; compound 2 mM)?
Answer: 99%

Question: What about the inhibition at 0.2 µM (SAP [3]; compound 200 nM) of the same molecule?
Answer: 28%

Question: And the inhibition at 2 µM (SAP [3]; compound 2 μM)?
Answer: 68%

Question: What about the inhibition at 20 µM (SAP [3]; compound 20 μM) of the same molecule?
Answer: 73%

Question: And the inhibition at 2000 µM (SAP [3]; compound 2 mM)?
Answer: 100%

Question: What about the inhibition at 0.2 µM (SAP [4]; compound 200 nM) of the same molecule?
Answer: 47%

Question: And the inhibition at 2 µM (SAP [4]; compound 2 μM)?
Answer: 78%

Question: What about the inhibition at 20 µM (SAP [4]; compound 20 μM) of the same molecule?
Answer: 90%

Question: What about the inhibition at 200 µM (SAP [4]; compound 200 μM) of the same molecule?
Answer: 91%

Question: And the inhibition at 2000 µM (SAP [4]; compound 2 mM)?
Answer: 91%
